In patent US20260294906A1, “TREATING PSORIASIS USING A SMALL MOLECULE INHIBITOR OF TUMOR NECROSIS FACTOR ALPHA” (SANOFI, priority 2023, published 2026):
Entries after “also recorded” stand apart in the source; their conditions may differ.

Legend:
[1] = test system: participants with mild to moderate psoriasis; test: Liver function laboratory tests in the clinical study; type: in vivo, human
Protocol: (§1) Two study interventions were used, Compound 1 and placebo. The Compound 1 intervention comprised 4× tablets of Compound 1 50 mg twice daily, i.e. 200 mg BID, for 4 weeks. The placebo intervention was 4× tablets of placebo twice daily for 4 weeks. Tablets were administered orally.
Laboratory tests (from at least 10 hours under fasting conditions for blood samples) included: • Hematology: red blood cell count, hematocrit, hemoglobin, white blood cell count with differential count (neutrophils, eosinophils, basophils, monocytes, and lymphocytes), platelets. • Biochemistry: • Plasma/serum electrolytes: sodium, potassium, chloride, calcium, • Liver function: AST, ALT, alkaline phosphatase, GGT, total and conjugated bilirubin, • Renal function: urea, creatinine, • Metabolism: glucose, albumin, total proteins, total cholesterol, triglycerides, • Potential muscle toxicity: CK, • International normalized ratio (INR), and activated partial thromboplastin time (aPTT), • C-reactive protein; the CRP levels were evaluated by an independent investigator who is not involved in the study to protect the blinding of the study. CRP values were provided by the independent investigator to the investigator in case of medical need. • Procalcitonin at screening, week 2 and EOS. • QuantiFERON-TB Gold (QFT) test.
For AESI in this study, the Sponsor was to be informed immediately (i.e., within 24 hours), as per SAE notification guidelines, even if a seriousness criterion was not met, using the corresponding screens in the eCRF. • ALT increased >3×ULN. • QT prolongation (QTcF≥500 milli seconds [ms]) and/or a delta QTc change from baseline>60 ms (12-lead ECG). In the event of prolongation of QTc interval (automatic measurement)≥500 ms, confirmed by a manual reading by the Investigator or a physician delegated by the Investigator using the Fridericia formula for correcting QT, the participant was placed under supervision in a specialized setting. Investigational medicinal product administration was stopped, and appropriate blood samples collected. Subsequent ECG monitoring of the participant was then performed on a regular and clinically responsible basis until the QTc interval returned to a safe value as determined by the Investigator in agreement with the Sponsor. • Photosensitivity (Grade 2 and above AE due to sun exposure). • Pregnancy. • Symptomatic overdose. • An overdose (accidental or intentional) with the IMP is an event suspected by the Investigator or spontaneously notified by the participant (not based on systematic pills count) and defined as at least twice the intended dose within the intended therapeutic interval, adjusted according to the tested drug.
Once the participant was included in the clinical trial, the following laboratory abnormalities were monitored, documented, and managed: • Neutropenia, characterized as neutrophils <1500/mm^3 or according to ethnic group (recorded as an AE only if at least 1 of the criteria listed above was met) • Thrombocytopenia, characterized as platelets <100,000/mm^3 confirmed with or without bleeding (recorded as an AE only if at least 1 of the criteria listed above was met) • Increase of ALT. Patients were monitored where 3 ULN<ALT≤5 ULN and total bilirubin was ≤2 ULN. […]

IL-22 = test: Serum levels of biomarker IL-22 (single-molecule array ELISA); type: in vivo, human
Protocol: The primary objective of the study was to assess the safety, tolerability, and clinical efficacy of Compound 1 at 200 mg BID via oral administration. Also evaluated was the clinical effect of Compound 1 as compared to placebo on the percent change in PASI and TLS scores from baseline to week 2 and week 4. The percent change in PASI score from baseline to week 4 was determined. TLS score was also assessed over the same time period. Also assessed was the effect of Compound 1 on biomarkers of psoriasis. Blood samples collected at predetermined time points were processed to quantify serum levels of biomarkers, including interleukin (IL)-17A, IL-17F, and IL-22 by high sensitivity methods. IL-17A, IL-17F and IL-22 are the main cytokines released by Th17 cells. Plasma levels of Compound 1 were measured to assess pharmacokinetics in the study population.
as §1
Blood samples were processed for analysis of IL-17A, IL-17F and IL-22 in serum samples by high sensitivity methods. Samples were collected according to the schedule of activity described above.
As indicated above, peripheral blood samples collected at predetermined time points were processed to quantify serum levels of biomarkers of psoriasis including IL-17A, IL-17F, and IL-22. Levels of IL-17A and IL-17F were quantified using a single molecule counting sandwich immunoassay (SMCxPro™, Millipore—see also Hwang et al., Methods (2019) 158:69-76). Levels of IL-22 were quantified using a single-molecule array ELISA (SIMOA™, Myriad RBM—see also Rissin et al., Anal Chem (2011) 83(6):2279-2285). Statistical analysis was based on geometric mean ratio to baseline; a two-sample t-test at significance alpha level of 5% was used for calculation of the p-values.

## CN1C(=O)c2cccc(OC(F)F)c2[C@H]2C[C@@H]1c1nc3ccc(-c4cnc(C5(N)CCC5)nc4)cc3n12 [Compound 1, (7R,14R)-11-[2-(1-aminocyclobutyl)pyrimidin-5-yl]-1-(difluoromethoxy)-6-methyl-6,7-dihydro-7,14-methanobenzimidazo[1,2-b][2,5]benzodiazocin-5(14H)-one]
[1]; 200 mg BID
  potentially clinically significant abnormality (PCSA) for ALT increase: no PCSA for ALT increase
[1]; 200 mg BID, Day 8, baseline 1.5 ULN
  total bilirubin, first participant: 1.67 ULN
[1]; 200 mg BID, day not given, baseline 1.3 ULN
  total bilirubin, second participant: 1.56 ULN
[1]; 200 mg BID, one single occasion
  Number of participants with total bilirubin increased >1.5 ULN: two
[1]; 4-week clinical trial
  liver function tests / impact on liver parameters (in words): no signal for risks on liver function tests; also recorded: neither was any significant impact on cardiac parameters (e.g., QTcF interval) or liver parameters (e.g., AST, ALT, or bilirubin levels) observed
IL-22; after treatment for 4 weeks
  Serum level of IL-22 (in words): substantially decreased
IL-22; baseline (before treatment)
  Serum level of IL-22, geometric mean (geometric SE): 4.13 (1.19) pg/mL
IL-22; week 2, 200 mg BID
  Serum level of IL-22, geometric mean (geometric SE): 2.86 (1.18) pg/mL
IL-22; week 4, 200 mg BID
  Serum level of IL-22, geometric mean (geometric SE): 2.49 (1.15) pg/mL
